Reference: patent US8202902B2, “Bivalent SMAC mimetics and the uses thereof” (The Regents of the University of Michigan, priority 2006, dated 2012)
Residues, ends and D or L forms follow the SMILES beside them. *: point of attachment. Cbz = O=C(OCc1ccccc1)*; CH2F = FC*

Columns and labels:
[1] = target: T1, XIAP BIR3 protein of human XIAP (residues 241-356) (Homo sapiens, UniProt P98170); assay: Fluorescence polarization (FP) based binding assay to XIAP BIR3; settings: read-out: Binding Affinities to XIAP BIR3 (IC50 [uM])
T1 construct: human XIAP (residues 241-356) fused to His-tag; His-tag
Description: In order to test the binding ability of the bivalent Smac mimetics to IAP proteins, a sensitive and quantitative in vitro binding assay using the fluorescence polarization (FP) based method was developed and used to determine the binding affinity of Smac mimetics to XIAP protein (Nikolovska-Coleska et al., Anal Biochem. 332:261-73 (2004)). […] The recombinant XIAP BIR3 protein of human XIAP ([…]) fused to His-tag was stable and soluble, and was used for the FP based binding assay. The dose-dependent binding experiments were carried out with serial dilutions of the tested compounds in DMSO. […] Inc., Research Triangle Park, N.C.). […] Curve fitting was performed using […] PRISM software (GraphPad Software, Inc., San Diego, Calif.).

[2] = test system: MDA-MB-231 and SK-OV-3 cancer cell lines; assay: Role of caspase-8, -3 and -9 (siRNA, caspase inhibitors) in activity of Smac mimetics; assay type: cell-based
Description: To examine the role of caspase-8, -3 and -9 in apoptosis induction by Smac mimetics, siRNA was employed against these caspases in MDA-MB-231 and SK-OV-3 cancer cell lines.

[3] = test system: MDA-MB-231 (2LMP) breast cancer cells; assay: Cell growth inhibition by TRAIL alone or with Smac mimetic, MDA-MB-231 (2LMP); assay type: cell-based, human
Description: (§1) The rate of cell growth inhibition after treatment with different concentrations of the compound was determined using a WST-8 kit (2-(2-methoxy-4-nitrophenyl)-3-(4-nitrophenyl)-5-(2, 4 disulfophenyl)-2H-tetrazolium monosodium salt; Dojindo Molecular Technologies, Inc., Gaithersburg, Md.). WST-8 was added at a final concentration of 10% to each well, and then the plates were incubated at 37° C. for 2-3 hrs. The absorbance of the samples was measured at 450 nm using a ULTRA Tecan Reader (Molecular Device).
(§2) To test the ability of bivalent Smac mimetics to sensitize cancer cells to the growth inhibiting effects of other agents, cell growth inhibition assays were carried out with various agents alone or in combination with increasing doses of bivalent Smac mimetics.

[4] = test system: PC-3 human prostate cancer cells; assay: Cell growth inhibition by TRAIL alone or with Smac mimetic, PC-3; assay type: cell-based
Description: as §1, §2

[5] = test system: MDA-MB-453 breast cancer cells; assay: Cell growth inhibition by TRAIL alone or with Smac mimetic, MDA-MB-453; assay type: cell-based
Description: as §1, §2

[6] = test system: cIAP-1 in cancer cell lines; assay: Induction of cIAP-1 degradation in cancer cells; assay type: cell-based; settings: sensitive and resistant cancer cell lines
[7] = test system: MDA-MB-231 xenograft model; assay: Inhibition of tumor growth in the MDA-MB-231 xenograft model; assay type: in vivo, mice; settings: 7.5 mg/kg
Description: SM-164 was evaluated for its ability to inhibit tumor growth. […] Treatment with SM-164 at 5 mg/kg reduces the tumor volume from 147±54 mm^3 at the beginning of the treatment (day 25) to 54±32 mm^3 at the end of the treatment (day 36), a reduction of 65%. The strong antitumor activity by SM-164 is long lasting and not transient.

[8] = test system: XIAP, cIAP-1, and cIAP-2 proteins; assay: Fluorescence-polarization based binding of control compounds to IAP proteins
Description: Therefore binding affinities of Smac mimetics to cIAP-2 BIR3-only protein were evaluated.

[9] = target: T2, Recombinant XIAP containing linker-BIR2-BIR3 (residues 120-356) (Homo sapiens, UniProt P98170); assay: Cell-free functional assay: antagonism of XIAP inhibition of caspase-3/-7; assay type: biochemical; settings: up to 100 μM
T2 construct: Recombinant XIAP containing linker-BIR2-BIR3 (residues 120-356)

[10] = target: T3, human XIAP protein (residues 120-356) (Homo sapiens, UniProt P98170); assay: Fluorescence-polarization-based binding assay to XIAP protein (Smac2-F tracer); settings: read-out: Binding to XIAP IC50 values
T3 construct: human XIAP protein (residues 120-356) (10 nM)
Description: The polarization values were measured after 2 hours incubation, using the Ultra plate reader. […] Curve fitting is performed using GraphPad Prism® software.

[11] = test system: MDA-MB-231 human breast cancer cell line; assay: Cell growth inhibition, WST-8 assay, MDA-MB-231; assay type: cell-based; settings: MDA-MB-231, read-out: IC50 values (nM) In WST-assay (MDA-MB-231)
Description: as §1

SK-OV-3 = assay: Cell growth inhibition, WST assay, SK-OV-3; assay type: cell-based; settings: Homo sapiens
Description: as §1, with “Cells were seeded in 96-well flat bottom cell culture plates at a density of 3000 cells/well with a tested compound and incubated at 37° C. in an atmosphere of 95% air and 5% CO2 for 4 days. The rate” for “The rate”

XIAP = XIAP (Homo sapiens, UniProt P98170); settings: cited from earlier work
Sequence of XIAP (P98170 whole entry): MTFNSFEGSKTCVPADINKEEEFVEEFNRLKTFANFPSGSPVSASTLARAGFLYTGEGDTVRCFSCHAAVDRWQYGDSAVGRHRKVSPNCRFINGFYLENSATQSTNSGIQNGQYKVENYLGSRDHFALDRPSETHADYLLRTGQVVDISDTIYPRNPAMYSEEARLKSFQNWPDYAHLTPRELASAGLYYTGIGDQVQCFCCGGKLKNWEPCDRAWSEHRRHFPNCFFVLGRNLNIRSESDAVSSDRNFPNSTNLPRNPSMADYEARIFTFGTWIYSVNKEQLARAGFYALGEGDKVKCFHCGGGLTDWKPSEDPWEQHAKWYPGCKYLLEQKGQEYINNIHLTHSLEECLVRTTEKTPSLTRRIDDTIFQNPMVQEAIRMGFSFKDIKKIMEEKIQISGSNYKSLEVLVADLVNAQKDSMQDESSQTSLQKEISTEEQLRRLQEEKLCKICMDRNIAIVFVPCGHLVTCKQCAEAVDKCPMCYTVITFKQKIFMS

T3 sequence (P98170 120-356): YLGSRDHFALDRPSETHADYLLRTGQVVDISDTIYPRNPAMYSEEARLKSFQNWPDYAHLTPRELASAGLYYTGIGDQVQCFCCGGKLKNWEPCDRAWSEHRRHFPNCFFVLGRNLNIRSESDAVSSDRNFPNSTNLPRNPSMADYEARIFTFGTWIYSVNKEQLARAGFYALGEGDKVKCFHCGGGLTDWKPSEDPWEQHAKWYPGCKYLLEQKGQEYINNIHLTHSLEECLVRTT
T1 sequence (P98170 241-356): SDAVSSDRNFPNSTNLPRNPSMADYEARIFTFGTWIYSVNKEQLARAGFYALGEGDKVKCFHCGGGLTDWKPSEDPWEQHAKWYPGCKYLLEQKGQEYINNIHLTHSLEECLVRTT
T2 sequence (P98170 120-356): as the sequence (P98170 120-356) above

## CN[C@@H](C)C(=O)N[C@H]1CN(C(=O)CC(C)C)CC[C@H]2CC[C@@H](C(=O)NC(c3ccccc3)c3ccccc3)N2C1=O [SM-406]
[1]
  IC50: < 0.1 µM

## CC[C@H](C)[C@H](NC(=O)OCc1ccccc1)C(=O)N[C@@H](CCC(=O)OC)C(=O)N[C@H](C(=O)N[C@@H](CC(=O)OC)C(=O)CF)[C@@H](C)O [Z-IETD-FMK, reference compound] (Cbz-IE(OMe)TD(OMe)-CH2F)
[2]
  effect of caspase inhibitor on the activity of both Smac mimetics (SM-164, SM-122): markedly inhibited

## COC(=O)CC[C@H](NC(=O)[C@H](CC(=O)OC)NC(=O)OCc1ccccc1)C(=O)N[C@H](C(=O)N[C@@H](CC(=O)OC)C(=O)CF)C(C)C [Z-DEVD-FMK, reference compound]
[2]
  effect of caspase inhibitor on the activity of both Smac mimetics (SM-164, SM-122): markedly inhibited

## TRAIL: tumor necrosis factor-related apoptosis-inducing ligand
[3]
  IC50 of TRAIL alone: 0.0022 µg/mL
[4]
  IC50 of TRAIL alone: > 0.3 µg/mL
[5]
  IC50 of TRAIL alone: > 1 µg/mL

## CN[C@@H](C)C(=O)N[C@H]1CN(C(=O)Cc2ccc(F)cc2)CC[C@H]2CC[C@@H](C(=O)NCc3ccc(F)cc3)N2C1=O [SM-402]
[1]
  IC50: < 0.1 µM

## CC(C)C[C@@H](C=O)NC(=O)[C@H](CC(C)C)NC(=O)[C@H](CC(C)C)NC(=O)OCc1ccccc1 [MG-132, reference compound] (Cbz-Leu-Leu-Leu-aldehyde)
[6]
  effect of proteasome inhibitor on cIAP-1 degradation by SM-122 and SM-164: effectively blocked cIAP-1 degradation

## CN[C@@H](C)C(=O)N[C@H]1CN(C(=O)CCc2ccc(F)cc2)CC[C@H]2CC[C@@H](C(=O)NC(c3ccc(F)cc3)c3ccc(F)cc3)N2C1=O [SM-404]
[1]
  IC50: < 0.1 µM

## CN[C@@H](C)C(=O)N[C@H]1CN(C(=O)CCc2ccccc2)CC[C@H]2CC[C@@H](C(=O)NC(c3ccccc3)c3ccccc3)N2C1=O [SM-408]
[1]
  IC50: < 0.1 µM

## CC(=O)O[C@@]12CO[C@@H]1C[C@H](O)[C@@]1(C)C(=O)[C@H](O)C3=C(C)[C@@H](OC(=O)[C@H](O)[C@@H](NC(=O)OC(C)(C)C)c4ccccc4)C[C@@](O)([C@@H](OC(=O)c4ccccc4)[C@H]21)C3(C)C [taxotere, reference compound]
[7]
  inhibition of tumor growth compared to control: effective in inhibition of tumor growth
  tumor regression: failed to achieve tumor regression

## CC(=O)NC(Cc1c[nH]c2ccccc12)C(=O)NC1CCCCC2CCC(C(=O)NC(c3ccccc3)c3cn(CCCCc4ccc(CCCCn5cc(C(NC(=O)C6CCC7CCCCC(NC(=O)C(Cc8c[nH]c9ccccc89)NC(C)=O)C(=O)N76)c6ccccc6)nn5)cc4)nn3)N2C1=O (stereo not shown) [SH-173]
[8]
  less potent than SM-164 to these IAP proteins: 1000 times
[9]
  effect in the functional assay: minimal effect
[10]
  IC50: > 10000 nM

## CN[C@@H](C)C(=O)N[C@H]1CN(C(=O)CC2CCCC2)CC[C@H]2CC[C@@H](C(=O)NC(c3ccccc3)c3ccccc3)N2C1=O [SM-405]
[1]
  IC50: < 0.1 µM

## CN[C@@H](C)C(=O)N[C@H]1CCCC[C@H]2CC[C@@H](C(=O)N[C@@H](c3ccccc3)c3cn(CCCCn4cc([C@@H](NC(=O)[C@@H]5CC[C@@H]6CCCC[C@H](NC(=O)[C@H](C)NC)C(=O)N65)c5ccccc5)nn4)nn3)N2C1=O [SH-166]
[10]
  IC50: < 10 nM
[11]
  IC50: < 1000 nM
SK-OV-3
  IC50: < 1000 nM

## CN[C@@H](C)C(=O)N[C@H]1CCCC[C@H]2CC[C@@H](C(=O)N[C@@H](c3ccccc3)c3ccc(CCCNC(=O)NCCCc4ccc([C@@H](NC(=O)[C@@H]5CC[C@@H]6CCCC[C@H](NC(=O)[C@@H](C)NC)C(=O)N65)c5ccccc5)cc4)cc3)N2C1=O [SH-188]
[10]
  IC50: < 100 nM
[11]
  IC50: < 100 nM
SK-OV-3
  IC50: < 100 nM

## CCCC(=O)N1CC[C@H]2CC[C@@H](C(=O)NC(c3ccccc3)c3ccccc3)N2C(=O)[C@@H](NC(=O)[C@H](C)NC)C1 [SM-409]
[1]
  IC50: < 0.1 µM

## CN[C@@H](C)C(=O)N[C@H]1CN(C(=O)CCc2ccc(F)cc2)CC[C@H]2CC[C@@H](C(=O)NC(c3ccccc3)c3ccccc3)N2C1=O [SM-407]
[1]
  IC50: < 0.1 µM

B1: mature Smac protein: mature Smac protein, endogenous inhibitor of XIAP (protein, UniProt Q9NR28 22-239, looked up)
Diablo IAP-binding …: LCVPVVANFKKRCFSELIRPWHKTVTIGFGVTLCAVPIAQKSEPHSLSSEALMRRAVSLVTDSTSTFLSQTTYALIEAITEYTKAVYTLTSLYRQYTSLLGKMNSEEEDEVWQVIIGARAEMTSKHQEYLKLETTWMTAVGLSEMAAEAAYQTGADQASITARNHIQLVKLQVEEVHQLSRKAETKLAEAQIEELRQKTQEEGEERAESEQEAYLRED
XIAP
  Kd: 420 nM
